Common to all, as to assay: NCI-60 cell line screen, 48 h
For assay [1], the system named is COLO 205.
Assay [2] has as its system DU-145.
The subject of assay [3] is EKVX.
Assay [4] relates to HCT-15.
The test system of assay [5] is HOP-92.
For assay [6], the system named is Hs-578T.
The test system of assay [7] is K562.
The subject of assay [8] is LOX IMVI.
In assay [9] the test system is MDA-MB-231.
Assay [10] relates to MDA-MB-435.
Assay [11] has as its system NCI-H226.
Assay [12] concerns OVCAR-4.
Assay [13] relates to OVCAR-5.
Assay [14] concerns RPMI-8226.
In assay [15] the test system is SF-268.
Assay [16] deals with SF-539.
Assay [17] has as its system SK-MEL-28.
The subject of assay [18] is SK-MEL-5.
The subject of assay [19] is SK-OV-3.
Assay [20] concerns SR.

Molecules are shown by their SMILES.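 These data come from cells grown in 96-well plates and exposed to compound for 48 hours at five concentrations. Here, GI50 denotes the concentration required for 50% inhibition of growth.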 Calls of active or inactive are those of the source. Cut-off read from the data, not from the text of the source: active = GI50 up to about 1.1 µM and inactive = higher.

`CN(C)c1ccc2c(SCC(=O)OCC(=O)[C@@]3(O)CC[C@H]4[C@@H]5CCC6=CC(=O)C=C[C@]6(C)[C@H]5C(=O)C[C@@]43C)c3ccc(N(C)C)cc3nc2c1`: the GI50 in [1] is 5.79 µM (inactive); in assay [2], 11.5 µM (inactive); in assay [3], 18.1 µM (inactive); in [4], 3.3 µM; in assay [5], 30.7 µM (inactive); in assay [6], > 100 µM (inactive). In addition, the GI50 in [7] is 2.64 µM (inactive); in [8], 26.7 µM (inactive); in assay [9] it was 27.5 µM (inactive); in [10], 17 µM (inactive); in assay [11], 14.8 µM (inactive); in [12] it was 10.9 µM (inactive). In addition, the GI50 in assay [13] was 32.1 µM (inactive); in [14], 14.6 µM (inactive); in assay [15], 5.82 µM (inactive); in assay [16] it was 6.19 µM (inactive); in assay [17], 21.6 µM (inactive); in assay [18], 15 µM (inactive). Further, the GI50 is 27.4 µM (inactive) in assay [19] and 1.35 µM (inactive) in assay [20].

These data come from ChEMBL document CHEMBL1201862, “PubChem BioAssay data set” (2004).
